The test system of the assay is TPM3-NTRK1-wt IC50 / primary target (e.g. CD74-ROS1-wt) IC50, Ba/F3 cells. The experiment in a line: Cell assay TRKA selectivity (TRKA potency divided by primary target potency). The class given is cell-based. As to conditions: for TPM3-NTRK1-wt/CD74-ROS1-G2032R: TRKA selectivity ratio: TPM3-NTRK1-wt IC50 / CD74-ROS1-G2032R IC50, Ba/F3 cells; for TPM3-NTRK1-wt/CD74-ROS1-wt: TRKA selectivity ratio: TPM3-NTRK1-wt IC50 / CD74-ROS1-wt IC50, Ba/F3 cells; for TPM3-NTRK1-wt/EML4-ALK-L1196M-G1202R: TRKA selectivity ratio: TPM3-NTRK1-wt IC50 / EML4-ALK-L1196M-G1202R IC50, Ba/F3 cells; for TPM3-NTRK1-wt/EML4-ALK-wt: TRKA selectivity ratio: TPM3-NTRK1-wt IC50 / EML4-ALK-wt IC50, Ba/F3 cells. A digest of the protocol: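 Ratio of TRKA to primary-target cellular IC50 (e.g. TPM3-NTRK1-wt/CD74-ROS1-wt), grouped into bins A >30, B >10, C ≥1, D <1. Each IC50 came from engineered Ba/F3 fusion lines grown without IL-3, dosed for 72 h and read as CellTiter-Glo luminescence, with a four-parameter logistic fit.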

Turning to `CCn1nc(OC)c2c1-c1cnc(N)c(c1)O[C@H](C)c1cc(F)ccc1-n1nc(C(F)F)cc1C2` [Example 147, (19R)-10-(difluoromethyl)-3-ethyl-16-fluoro-5-methoxy-19-methyl-20-oxa-3,4,11,12,23-pentaazapentacyclo[19.3.1.0^2,^6.0^8,^12.0^13,^18]pentacosa-1(24),2(6),4,8,10,13,15,17,21(25),22-decaen-22-amine], the TPM3-NTRK1-wt/CD74-ROS1-G2032R result is “A (bin A for very high selectivity, ratio>30-fold)”; the TPM3-NTRK1-wt/CD74-ROS1-wt entry is on record as “A (bin A for very high selectivity, ratio>30-fold)”; the TPM3-NTRK1-wt/EML4-ALK-L1196M-G1202R entry is recorded as “C (bin C for moderate selectivity, ratio≥1)”; the TPM3-NTRK1-wt/EML4-ALK-wt entry is “A (bin A for very high selectivity, ratio>30-fold)”.
Consider `CCn1ncc2c1-c1cnc(N)c(c1)O[C@H](C)c1cc(F)ccc1-c1ncc(OC)cc1C2` [Example 149, (20R)-3-ethyl-17-fluoro-10-methoxy-20-methyl-21-oxa-3,4,12,24-tetraazapentacyclo[20.3.1.0^2,^6.0^8,^13.0^14,^19]hexacosa-1(25),2(6),4,8(13),9,11,14,16,18,22(26),23-undecaen-23-amine], for which the TPM3-NTRK1-wt/CD74-ROS1-G2032R entry was “B (bin B for high selectivity, ratio>10-fold)”; the TPM3-NTRK1-wt/CD74-ROS1-wt entry is listed as “A (bin A for very high selectivity, ratio>30-fold)”; the TPM3-NTRK1-wt/EML4-ALK-L1196M-G1202R result is recorded as “D (bin D for low selectivity, ratio<1)”; the TPM3-NTRK1-wt/EML4-ALK-wt result was “B (bin B for high selectivity, ratio>10-fold)”.
Regarding `CCn1ncc2c1-c1cnc(N)c(c1)O[C@H](C)c1cc(F)ccc1-c1nn(C(C)(C)C)cc1C2` [Example 150, (19R)-10-tert-butyl-3-ethyl-16-fluoro-19-methyl-20-oxa-3,4,10,11,23-pentaazapentacyclo[19.3.1.0^2,^6.0^8,^12.0^13,^18]pentacosa-1(24),2(6),4,8,11,13,15,17,21(25),22-decaen-22-amine], the TPM3-NTRK1-wt/CD74-ROS1-G2032R result is “A (bin A for very high selectivity, ratio>30-fold)”; the TPM3-NTRK1-wt/CD74-ROS1-wt result is “A (bin A for very high selectivity, ratio>30-fold)”; the TPM3-NTRK1-wt/EML4-ALK-L1196M-G1202R entry is “C (bin C for moderate selectivity, ratio≥1)”; the TPM3-NTRK1-wt/EML4-ALK-wt result is reported as “B (bin B for high selectivity, ratio>10-fold)”.
On to `CCn1ncc2c1-c1cnc(N)c(c1)O[C@H](C)c1cc(F)ccc1-c1nccc(OC)c1C2` [Example 151, (20R)-3-ethyl-17-fluoro-9-methoxy-20-methyl-21-oxa-3,4,12,24-tetraazapentacyclo[20.3.1.0^2,^6.0^8,^13.0^14,^19]hexacosa-1(25),2(6),4,8(13),9,11,14,16,18,22(26),23-undecaen-23-amine], for which the TPM3-NTRK1-wt/CD74-ROS1-G2032R entry is on record as “A (bin A for very high selectivity, ratio>30-fold)”; the TPM3-NTRK1-wt/CD74-ROS1-wt entry is on record as “A (bin A for very high selectivity, ratio>30-fold)”; the TPM3-NTRK1-wt/EML4-ALK-L1196M-G1202R entry is recorded as “C (bin C for moderate selectivity, ratio≥1)”; the TPM3-NTRK1-wt/EML4-ALK-wt entry is on record as “A (bin A for very high selectivity, ratio>30-fold)”.
Turning to `CCc1onc2c1-c1cnc(N)c(c1)O[C@H](C)c1cc(F)ccc1-c1nn(C)cc1C2` [Example 152, (19R)-3-ethyl-16-fluoro-10,19-dimethyl-4,20-dioxa-5,10,11,23-tetraazapentacyclo[19.3.1.0^2,^6.0^8,^12.0^13,^18]pentacosa-1(24),2,5,8,11,13,15,17,21(25),22-decaen-22-amine], the TPM3-NTRK1-wt/CD74-ROS1-G2032R result is reported as “A (bin A for very high selectivity, ratio>30-fold)”; the TPM3-NTRK1-wt/CD74-ROS1-wt result is “A (bin A for very high selectivity, ratio>30-fold)”; the TPM3-NTRK1-wt/EML4-ALK-L1196M-G1202R result is “C (bin C for moderate selectivity, ratio≥1)”; the TPM3-NTRK1-wt/EML4-ALK-wt result is recorded as “A (bin A for very high selectivity, ratio>30-fold)”.
For the compound `CC(C)Cn1ncc2c1-c1cnc(N)c(c1)O[C@H](C)c1cc(F)ccc1-c1nn(C)cc1C2` [Example 154, (19R)-16-fluoro-10,19-dimethyl-3-(2-methylpropyl)-20-oxa-3,4,10,11,23-pentaazapentacyclo[19.3.1.0^2,^6.0^8,^12.0^13,^18]pentacosa-1(24),2(6),4,8,11,13,15,17,21(25),22-decaen-22-amine], the TPM3-NTRK1-wt/CD74-ROS1-G2032R result is on record as “A (bin A for very high selectivity, ratio>30-fold)”; the TPM3-NTRK1-wt/CD74-ROS1-wt result was “A (bin A for very high selectivity, ratio>30-fold)”; the TPM3-NTRK1-wt/EML4-ALK-L1196M-G1202R entry is reported as “B (bin B for high selectivity, ratio>10-fold)”; the TPM3-NTRK1-wt/EML4-ALK-wt result is “A (bin A for very high selectivity, ratio>30-fold)”.
Take `CCc1nsc2c1-c1cnc(N)c(c1)O[C@H](C)c1cc(F)ccc1-c1nn(C)cc1C2` [Example 155, (19R)-3-ethyl-16-fluoro-10,19-dimethyl-20-oxa-5-thia-4,10,11,23-tetraazapentacyclo[19.3.1.0^2,^6.0^8,^12.0^13,^18]pentacosa-1(24),2(6),3,8,11,13,15,17,21(25),22-decaen-22-amine]: the TPM3-NTRK1-wt/CD74-ROS1-G2032R entry is recorded as “C (bin C for moderate selectivity, ratio≥1)”; the TPM3-NTRK1-wt/CD74-ROS1-wt result is reported as “A (bin A for very high selectivity, ratio>30-fold)”; the TPM3-NTRK1-wt/EML4-ALK-L1196M-G1202R entry is “D (bin D for low selectivity, ratio<1)”; the TPM3-NTRK1-wt/EML4-ALK-wt entry was “A (bin A for very high selectivity, ratio>30-fold)”.
In the case of `CCn1nc(C#N)c2c1-c1cnc(N)c(c1)O[C@H](C)c1cc(F)ccc1-c1nn(C)cc1C2` [Example 156, (19R)-22-amino-3-ethyl-16-fluoro-10,19-dimethyl-20-oxa-3,4,10,11,23-pentaazapentacyclo[19.3.1.0^2,^6.0^8,^12.0^13,^18]pentacosa-1(24),2(6),4,8,11,13,15,17,21(25),22-decaene-5-carbonitrile], the TPM3-NTRK1-wt/EML4-ALK-L1196M-G1202R result was “C (bin C for moderate selectivity, ratio≥1)”.
For the compound `CCn1ncc2c1-c1cnc(N)c(c1)O[C@H](C)c1cc(F)ccc1-c1nn(C)c(OC)c1C2` [Example 157, (19R)-3-ethyl-16-fluoro-9-methoxy-10,19-dimethyl-20-oxa-3,4,10,11,23-pentaazapentacyclo[19.3.1.0^2,^6.0^8,^12.0^13,^18]pentacosa-1(24),2(6),4,8,11,13,15,17,21(25),22-decaen-22-amine], the TPM3-NTRK1-wt/CD74-ROS1-G2032R entry was “A (bin A for very high selectivity, ratio>30-fold)”; the TPM3-NTRK1-wt/CD74-ROS1-wt entry is reported as “A (bin A for very high selectivity, ratio>30-fold)”; the TPM3-NTRK1-wt/EML4-ALK-L1196M-G1202R entry was “C (bin C for moderate selectivity, ratio≥1)”; the TPM3-NTRK1-wt/EML4-ALK-wt entry is reported as “A (bin A for very high selectivity, ratio>30-fold)”.
`CCc1nn(CC)c2c1Cc1cn(C)nc1-c1ccc(F)cc1[C@@H](C)Oc1cc-2cnc1N` [Example 158, (19R)-3,5-diethyl-16-fluoro-10,19-dimethyl-20-oxa-3,4,10,11,23-pentaazapentacyclo[19.3.1.0^2,^6.0^8,^12.0^13,^18]pentacosa-1(24),2(6),4,8,11,13,15,17,21(25),22-decaen-22-amine]: the TPM3-NTRK1-wt/CD74-ROS1-G2032R entry was “A (bin A for very high selectivity, ratio>30-fold)”; the TPM3-NTRK1-wt/CD74-ROS1-wt entry is recorded as “A (bin A for very high selectivity, ratio>30-fold)”; the TPM3-NTRK1-wt/EML4-ALK-L1196M-G1202R result was “C (bin C for moderate selectivity, ratio≥1)”; the TPM3-NTRK1-wt/EML4-ALK-wt result is listed as “A (bin A for very high selectivity, ratio>30-fold)”.
On to `C[C@H]1Oc2cc(cnc2N)-c2c(cnn2CC2(C)CC2)Cc2cn(C)nc2-c2ccc(F)cc21` [Example 159, (19R)-16-fluoro-10,19-dimethyl-3-[(1-methylcyclopropyl)methyl]-20-oxa-3,4,10,11,23-pentaazapentacyclo[19.3.1.0^2,^6.0^8,^12.0^13,^18]pentacosa-1(24),2(6),4,8,11,13,15,17,21(25),22-decaen-22-amine], for which the TPM3-NTRK1-wt/CD74-ROS1-G2032R entry was “A (bin A for very high selectivity, ratio>30-fold)”; the TPM3-NTRK1-wt/CD74-ROS1-wt entry was “A (bin A for very high selectivity, ratio>30-fold)”; the TPM3-NTRK1-wt/EML4-ALK-L1196M-G1202R result was “B (bin B for high selectivity, ratio>10-fold)”; the TPM3-NTRK1-wt/EML4-ALK-wt result is reported as “A (bin A for very high selectivity, ratio>30-fold)”.
For the compound `C[C@H]1Oc2cc(cnc2N)-c2c(cnn2CC2CC2)Cc2cn(C(F)F)nc2-c2ccc(F)cc21` [Example 160, (19R)-3-(cyclopropylmethyl)-10-(difluoromethyl)-16-fluoro-19-methyl-20-oxa-3,4,10,11,23-pentaazapentacyclo[19.3.1.0^2,^6.0^8,^12.0^13,^18]pentacosa-1(24),2(6),4,8,11,13,15,17,21(25),22-decaen-22-amine], the TPM3-NTRK1-wt/CD74-ROS1-G2032R entry is “A (bin A for very high selectivity, ratio>30-fold)”; the TPM3-NTRK1-wt/CD74-ROS1-wt entry was “A (bin A for very high selectivity, ratio>30-fold)”; the TPM3-NTRK1-wt/EML4-ALK-L1196M-G1202R result is listed as “A (bin A for very high selectivity, ratio>30-fold)”; the TPM3-NTRK1-wt/EML4-ALK-wt result is “A (bin A for very high selectivity, ratio>30-fold)”.
Take `CCn1ncc2c1-c1cnc(N)c(c1)O[C@H](C)c1cc(F)ccc1-c1onc(C)c1C2` [Example 161, (19R)-3-ethyl-16-fluoro-9,19-dimethyl-11,20-dioxa-3,4,10,23-tetraazapentacyclo[19.3.1.0^2,^6.0^8,^12.0^13,^18]pentacosa-1(24),2(6),4,8(12),9,13,15,17,21(25),22-decaen-22-amine]: the TPM3-NTRK1-wt/CD74-ROS1-G2032R result is “C (bin C for moderate selectivity, ratio≥1)”; the TPM3-NTRK1-wt/CD74-ROS1-wt entry was “C (bin C for moderate selectivity, ratio≥1)”; the TPM3-NTRK1-wt/EML4-ALK-L1196M-G1202R entry is reported as “D (bin D for low selectivity, ratio<1)”; the TPM3-NTRK1-wt/EML4-ALK-wt result is given as “C (bin C for moderate selectivity, ratio≥1)”.

Source of the values: US11667649B2, “Heteroaromatic macrocyclic ether chemotherapeutic agents” (Nuvalent, Inc., priority 2020, dated 2023).
